The target in this assay is T1, human LXRβ (Homo sapiens, UniProt P55055).
T1 construct: expressed in transfected cells; host or cells: HEK293 cells (ATCC CRL-1573), transient transfection with pFA-hLXRβ/GAL4 and pUAS
T1 sequence (P55055 222-460 limits assumed): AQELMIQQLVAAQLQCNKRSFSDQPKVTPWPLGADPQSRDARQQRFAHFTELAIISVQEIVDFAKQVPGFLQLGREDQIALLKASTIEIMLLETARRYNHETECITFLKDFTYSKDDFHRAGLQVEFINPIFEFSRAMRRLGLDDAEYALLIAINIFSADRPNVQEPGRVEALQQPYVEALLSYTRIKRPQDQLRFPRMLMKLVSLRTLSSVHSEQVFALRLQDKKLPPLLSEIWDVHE
As to the kind of experiment: Assay for Transcriptional Activity of LXRβ (GAL4-hLXRβ LBD luciferase reporter, transient transfection). The assay is classed as cell-based. The conditions noted are these: HEK293 cells transfected with pFA-hLXRβ/GAL4 and pUAS, 24 hours; for Emax: fold value in comparison with the control (DMSO-treated group); for EC50: increase of transcriptional activity of LXRβ, average of three independent tests. Put shortly:
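HEK293 cells transiently co-transfected with GAL4-hLXRβ LBD and 5×GAL4-UAS luciferase reporter, treated 24 h at 37 °C with compounds over 9 points (0.01–50 μM, half-log). Luminescence read after lysis; EC50 from four-parameter fit, mean of three independent tests, with a known LXR agonist as positive control.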

Usually EC50 stands for the concentration giving half of the maximal effect. Read a low EC50 as a more potent agent.

Consider `Cn1c(-c2ccc(C3CC(C(O)(C(F)(F)F)C(F)(F)F)=NN3c3ccc(F)cc3F)cc2)cc2ccccc21` (stereo not shown) [Example 374, 1-(2,4-difluoro-phenyl)-5-[4-(1-methyl-1H-indol-2-yl)-phenyl]-3-[di-(trifluoromethyl)-hydroxy-methyl]-4,5-dihydro-1H-pyrazole], for which the Emax worked out at 60 fold and the EC50 is 0.678 µM.
For `CN(C)S(=O)(=O)c1cccc(-c2cccc(C3CC(C(F)(F)C(F)(F)F)=NN3c3ccc(F)cc3F)c2)c1` (stereo not shown) [Example 87, 1-(2,4-difluoro-phenyl)-5-(3′-dimethylsulfamoyl-biphenyl-3-yl)-3-pentafluoroethyl-4,5-dihydro-1H-pyrazole], in that order: 46 fold and 0.091 µM.
The corresponding values for `COc1cccc(-c2ccc(C3CC(C(O)(C(F)(F)F)C(F)(F)F)=NN3c3ccccc3Cl)cn2)c1` (stereo not shown) [Example 349, 1-(2-chloro-phenyl)-5-[6-(3-methoxy-phenyl)-pyridin-3-yl]-3-[di-(trifluoromethyl)-hydroxy-methyl]-4,5-dihydro-1H-pyrazole] are 60 fold and 0.772 µM.
For `CC(O)c1ccc(-c2cccc(C3CC(C(F)(F)C(F)(F)F)=NN3c3ccccc3Cl)c2)cc1` (stereo not shown) [Example 108, 1-(2-chloro-phenyl)-5-[4′-(1-hydroxy-ethyl)-biphenyl-3-yl]-3-pentafluoroethyl-4,5-dihydro-1H-pyrazole], in that order: 44 fold and 0.993 µM.
`CC(C)(C)OC(=O)N1CC=C(c2ccc(C3CC(C(O)(C(F)(F)F)C(F)(F)F)=NN3c3ccc(F)cc3F)cc2)CC1` (stereo not shown) [Example 398, 1-(2,4-difluoro-phenyl)-5-[4-(1-BOC-1,2,3,6-tetrahydropyridin-4-yl)-phenyl]-3-[di-(trifluoromethyl)-hydroxy-methyl]-4,5-dihydro-1H-pyrazole] showed an Emax of 12 fold and an EC50 of 1.81 µM.
The corresponding values for `CS(=O)(=O)N1CC=C(c2cccc(N3N=C(C(O)(C(F)(F)F)C(F)(F)F)CC3c3ccccc3Cl)c2)CC1` (stereo not shown) [Example 437, 5-(2-chloro-phenyl)-1-[3-(1-methylsulfonyl-1,2,3,6-tetrahydropyridin-4-yl)-phenyl]-3-[di-(trifluoromethyl)-hydroxy-methyl]-4,5-dihydro-1H-pyrazole] are 13 fold and 0.932 µM.
For `COc1cccc(OC)c1-c1ccc(C2CC(C(O)(C(F)(F)F)C(F)(F)F)=NN2c2ccccc2Cl)cc1` (stereo not shown) [Example 245, 1-(2-chloro-phenyl)-5-(2′,6′-dimethoxy-biphenyl-4-yl)-3-[di-(trifluoromethyl)-hydroxy-methyl]-4,5-dihydro-1H-pyrazole], in that order: 57 fold and 2.43 µM.
Turning to `O=S(=O)(N1CC=C(c2ccc(C3CC(C(O)(C(F)(F)F)C(F)(F)F)=NN3c3ccccc3Cl)cc2)CC1)N1CCCC1` (stereo not shown) [Example 308, 1-(2-chloro-phenyl)-5-{4-[1-(pyrrolidine-1-sulfonyl)-1,2,3,6-tetrahydropyridin-4-yl]-phenyl}-3-[di-(trifluoromethyl)-hydroxy-methyl]-4,5-dihydro-1H-pyrazole], the Emax is on record as 36 fold and the response was half-maximal at 0.495 µM (EC50).
The corresponding values for `COc1cc(C)c(-c2ccc(C3CC(C(O)(C(F)(F)F)C(F)(F)F)=NN3c3ccccc3Cl)cc2)cn1` (stereo not shown) [Example 270, 1-(2-chloro-phenyl)-5-[4-(6-methoxy-4-methyl-pyridin-3-yl)-phenyl]-3-[di-(trifluoromethyl)-hydroxy-methyl]-4,5-dihydro-1H-pyrazole] are 48 fold and 0.437 µM.
The corresponding values for `COc1ccc(-c2ccc(C3CC(C(O)(C(F)(F)F)C(F)(F)F)=NN3c3ccccc3Cl)cc2)cn1` (stereo not shown) [Example 260, 1-(2-chloro-phenyl)-5-[4-(6-methoxy-pyridin-3-yl)-phenyl]-3-[di-(trifluoromethyl)-hydroxy-methyl]-4,5-dihydro-1H-pyrazole] are 47 fold and 1.87 µM.
The corresponding values for `CN(C)C(=O)N1CC=C(c2cccc(C3CC(C(F)(F)C(F)(F)F)=NN3c3ccc(F)cc3F)c2)CC1` (stereo not shown) [Example 64, 1-(2,4-difluoro-phenyl)-5-[3-(1-dimethylcarbamoyl-1,2,3,6-tetrahydropyridin-4-yl)-phenyl]-3-pentafluoroethyl-4,5-dihydro-1H-pyrazole] are 48 fold and 1.3 µM.
`CS(=O)(=O)c1cc(F)c(-c2cccc(C3CC(C(F)(F)C(F)(F)F)=NN3c3ccc(F)cc3F)c2)cc1F` (stereo not shown) [Example 68, 5-(2′,5′-difluoro-4′-methanesulfonyl-biphenyl-3-yl)-1-(2,4-difluoro-phenyl)-3-pentafluoroethyl-4,5-dihydro-1H-pyrazole] showed an Emax of 75 fold and an EC50 of 0.192 µM.
The corresponding values for `CC(C)(C)OC(=O)N1CCN(c2ccc(C3CC(C(O)(C(F)(F)F)C(F)(F)F)=NN3c3ccccc3Cl)cn2)CC1` (stereo not shown) [Example 355, 1-(2-chloro-phenyl)-5-[6-(4-BOC-piperazin-1-yl)-pyridin-3-yl]-3-[di-(trifluoromethyl)-hydroxy-methyl]-4,5-dihydro-1H-pyrazole] are 43 fold and 4.13 µM.
The corresponding values for `OC(C1=NN(c2ccc(F)cc2F)C(c2ccc(-c3ccc(-n4cnnn4)cc3)cc2)C1)(C(F)(F)F)C(F)(F)F` (stereo not shown) [Example 373, 1-(2,4-difluoro-phenyl)-5-(4′-tetrazol-1-yl-biphenyl-4-yl)-3-[di-(trifluoromethyl)-hydroxy-methyl]-4,5-dihydro-1H-pyrazole] are 39 fold and 0.551 µM.
The corresponding values for `CC(=O)c1ccc(-c2ccc(C3CC(C(O)(C(F)(F)F)C(F)(F)F)=NN3c3ccccc3Cl)c(F)c2)cc1` (stereo not shown) [Example 341, 1-(2-chloro-phenyl)-5-(4′-acetyl-3-fluoro-biphenyl-4-yl)-3-[di-(trifluoromethyl)-hydroxy-methyl]-4,5-dihydro-1H-pyrazole] are 112 fold and 0.353 µM.
As for `COc1ncc(-c2cccc(C3CC(C(F)(F)C(F)(F)F)=NN3c3ccc(F)cc3F)c2)cc1C=O` (stereo not shown) [Example 73, 1-(2,4-difluoro-phenyl)-5-(3-(3-formyl-2-methoxy-pyridin-5-yl)-phenyl)-3-pentafluoroethyl-4,5-dihydro-1H-pyrazole], the Emax came to 13 fold and it took 1.07 µM to reach a half-maximal effect (EC50).
The corresponding values for `CC(=O)c1ccccc1-c1ccc(C2CC(C(O)(C(F)(F)F)C(F)(F)F)=NN2c2ccccc2Cl)cn1` (stereo not shown) [Example 348, 5-[6-(2-acetyl-phenyl)-pyridin-3-yl]-1-(2-chloro-phenyl)-3-[di-(trifluoromethyl)-hydroxy-methyl]-4,5-dihydro-1H-pyrazole] are 45 fold and 0.991 µM.
For `CN(C)S(=O)(=O)c1ccc(-c2ccc(C3CC(C(O)(C(F)(F)F)C(F)(F)F)=NN3c3ccc(F)cc3F)cc2)cc1` (stereo not shown) [Example 396, 1-(2,4-difluoro-phenyl)-5-(4′-dimethylsulfamoyl-biphenyl-4-yl)-3-(di-(trifluoromethyl)-hydroxy-methyl)-4,5-dihydro-1H-pyrazole], in that order: 83 fold and 0.145 µM.
The corresponding values for `N#Cc1ccc(-c2cccc(C3CC(C(F)(F)C(F)(F)F)=NN3c3ccc(F)cc3F)c2)cn1` (stereo not shown) [Example 78, 5-[3-(2-cyano-pyridin-5-yl)-phenyl]-1-(2,4-difluoro-phenyl)-3-pentafluoroethyl-4,5-dihydro-1H-pyrazole] are 25 fold and 2.5 µM.
The compound `O=S(=O)(C1CC1)N1CCN(c2cccc(C3CC(C(F)(F)C(F)(F)F)=NN3c3ccc(F)cc3F)c2)CC1` (stereo not shown) [Example 97, 5-[3-(4-cyclopropanesulfonyl-piperazin-1-yl)-phenyl]-1-(2,4-difluoro-phenyl)-3-pentafluoroethyl-4,5-dihydro-1H-pyrazole] registered an Emax of 69 fold and an EC50 of 3.09 µM.
Turning to `CC(C)(C)OC(=O)N1CC=C(c2ccc(C3CC(C(O)(C(F)(F)F)C(F)(F)F)=NN3c3ccccc3Cl)s2)CC1` (stereo not shown) [Example 416, 1-(2-chloro-phenyl)-5-[5-(1-BOC-1,2,3,6-tetrahydropyridin-4-yl)-thiophen-2-yl]-3-[di-(trifluoromethyl)-hydroxy-methyl]-4,5-dihydro-1H-pyrazole], the Emax is 90 fold and the midpoint of the response, the EC50, lay at 1.11 µM.
For `CS(=O)(=O)c1ccc(-c2cccc(C3CC(C(F)(F)C(F)(F)F)=NN3c3ccc(F)cc3F)c2)cn1` (stereo not shown) [Example 92, 1-(2,4-difluoro-phenyl)-5-[3-(6-methanesulfonyl-pyridin-3-yl)-phenyl]-3-pentafluoroethyl-4,5-dihydro-1H-pyrazole], in that order: 81 fold and 0.344 µM.
Turning to `OC(C1=NN(c2ccccc2Cl)C(c2ccc(-c3cnc4ccccc4c3)cc2)C1)(C(F)(F)F)C(F)(F)F` (stereo not shown) [Example 259, 1-(2-chloro-phenyl)-5-(4-quinolin-3-yl-phenyl)-3-[di-(trifluoromethyl)-hydroxy-methyl]-4,5-dihydro-1H-pyrazole], the Emax is listed as 57 fold and the EC50 stood at 0.519 µM.

These data come from patent publication US9376420B2 (YUHAN CORPORATION, priority 2012, dated 2016).
